Measured values: patent US20220378923A1, “BET DEGRADER” (KYOWA KIRIN CO., LTD., priority 2019, published 2022)

Key:
Format in all cases: cell-based, human
[1] = system: MYC mRNA expression in SU-DHL-4 cells; assay: Suppressive effect on MYC mRNA expression (Test Example 2); conditions: test compound 100 nmol/L, 6 hours, qRT-PCR corrected by ACTB, GAPDH; for inhibition at 0.1 µM: Homo sapiens, HPRT1, read-out: Suppression Rate of MYC mRNA Expression (%)
Method: The cells were passaged twice a week at a volume of 20-40 mL so as to maintain a cell concentration of 1×10^6 cells/mL or less. The cultured SU-DHL-4 cells were seeded at 6×10^5 cells/well in a transparent 6-well plate (Code No. 140675, Thermo Fisher Scientific). After seeding, the cells were precultured at 37° C. in a carbon dioxide gas incubator for 18 to 25 hours. […] At this time, the final concentration of DMSO was adjusted to be 0.1 vol %. After adding the test compound, the cells were cultured at 37° C. in a carbon dioxide gas incubator for 6 hours. Then, the cells were collected by centrifugation and used for extraction of mRNA. mRNA extraction from cells was performed using Maxwell® 16 LEV simplyRNA Purification Kits (Code No. AS1270, Promega). The mRNA recovery protocol was performed according to the manufacturer's recommended protocol attached to the kit. […] The cDNA conversion was performed, according to the manufacturer's recommended protocol attached to the kit, in 0.020 mL of the reaction solution, and GeneAmp® PCR System 9700 (Applied Biosystems) was used. The cDNA-converted sample was diluted 10-fold by adding 0.180 mL of RNase Free Water (Code No. 10977-023, Thermo Fisher Scientific) and used for quantitative real-time polymerase chain reaction (qRT-PCR). For the calibration curve of qRT-PCR, 0.08 mL of RNase Free Water was added to a cDNA sample using DMSO as a test compound for 5-fold dilution. Further, two 5-fold dilutions were prepared stepwise, and these three samples were used as the calibration curve samples. The following reagents were used for qRT-PCR: TaqMan Gene Expression Assays, Inventoried (Primer probe: Code No. 4331182, Thermo Fisher Scientific, Assay ID: (i) MYC: Hs00153408_m1, (ii) ACTB: Hs01060665_g1, (iii) GAPDH: Hs04420697_g1, (iv) HPRT1: […] Universal PCR Master Mix, no AmpEraseR UNG (Master Mix: Code No. 4367846, Thermo Fisher Scientific). Primer probe (0.001 mL), Master Mix (0.010 mL), water (0.004 mL) and the diluted cDNA sample (0.005 mL) were mixed, and qRT-PCR analysis was performed. For qRT-PCR analysis, QuantStudio 7 Flex (Thermo Fisher Scientific) or 7500 Fast Real-Time PCR (Applied Biosystems) was used to measure in Fast mode and analyze. […] Corrected MYC expression=A/B • A: MYC expression level • B: Geometric mean of expression levels of ACTB, GAPDH and HPRT1 Using the corrected values, the suppression rate of MYC expression for the wells to which the test compound was not added was calculated by the following formula. […] Corrected MYC expression level in a well containing test compound • D: Corrected MYC expression level in a well to which test compound was not added

DCAF16 KO SU-DHL-4 cells = assay: Inhibitory effect on cell viability using SU-DHL-4 DCAF16 knock out (KO) cell line (Test Example 6)
Method: The human DLBCL cell line SU-DHL-4 was purchased from DSMZ. SU-DHL-4 was passaged using RPMI1640 medium containing 10 vol % FBS. After the Cas9 gene was introduced, the cells were cultured in the above medium containing 0.01 mg/mL blasticidin (InvivoGen, Cat No. ant-bl-1). After introduction of sgRNA, the cells were cultured in the above medium containing 0.0001 mg/mL puromycin dihydrochloride (SIGMA, Cat No. P9020-10 ML). The culture conditions were 37° C. and 5% CO2.
Edit-R Lentiviral hEF1α-Blast-Cas9 Nuclease Particles (Cat No. VCAS10126) was used as a lentivirus for expressing Cas9 in human cell lines. Three types of Edit-R Human DCAF16 Lentiviral sgRNA (Cat No. VSGH10142-246568260; DNA target sequence […] (SEQ ID NO: 1), Cat No. VSGH10142-246568262; DNA target sequence […] (SEQ ID NO: 2) and Cat No. VSGH10142-246568263; DNA target sequence […] (SEQ ID NO: 3)) were used as lentiviruses for introducing DCAF16 sgRNA. As a control, Edit-R Lentiviral sgRNA Non-targeting Control #1 (Cat No. VSGC10215) was used. All lentiviruses were purchased from Dharmacon and stored at −80° C. until use.
SU-DHL-4 was suspended at 4×10^5 cells/mL in RPMI 1640 without FBS, 0.25 mL of the suspension was added to a 24-well plate, and the cells were cultured overnight. The next day, 0.003 mL of virus particles of Edit-R Lentiviral hEF1α-Blast-Cas9 Nuclease Particles was added. After culturing in a CO2 incubator for 4 hours, RPMI 1640 containing 0.75 mL of 10 vol % FBS was added. After culturing in a CO2 incubator for about 48 hours, the medium was replaced with RPMI1640 containing 10 vol % FBS, and the cells were cultured in a CO2 incubator. Four days after infection, the medium was replaced with a medium containing 0.01 mg/mL blasticidin (InvivoGen, Cat No. ant-bl-1). Then, the cells were passaged once every 2 to 3 days and thus twice in total (that is, cultured for 1 week) to obtain SU-DHL-4/Cas9, which is a Cas9-introduced SU-DHL-4 cell line.
(6) sgRNA infection SU-DHL-4/Cas9 was suspended at 4×10^5 cells/mL in RPMI 1640 without FBS, 0.25 mL of the suspension was added to a 24-well plate, and the cells were cultured overnight. The next day, a total of 4 types of sgRNA virus particles, 1 type of Control and 3 types targeting DCAF16 were added to the respective wells by 0.03 mL. After culturing in a CO2 incubator for 5 hours, RPMI 1640 containing 0.75 mL of 10 vol % FBS was added.
After culturing in a CO2 incubator for about 48 hours, the medium was replaced with RPMI1640 containing 10 vol % FBS, and the cells were cultured in a CO2 incubator. Four days after infection, the medium was replaced with a medium supplemented with 0.01 mg/mL puromycin dihydrochloride (SIGMA, Cat No. P9020-10 ML). Then, the cells were passaged once or twice a week for 2 weeks, and a cell stock was prepared using CELLBANKER I plus (Takara Bio, Cat No. CB-021). Cell line stock was stored at −80° C. Using Edit-R Lentiviral sgRNA Non-targeting Control #1, the Negative Control sequence was introduced into the SU-DHL-4 cell line, which was referred to as SU-DHL-4 NC strain, and using Edit-R Human DCAF16 Lentiviral sgRNA, […] sequence (SEQ ID NO: 1) was introduced into the SU-DHL-4 cell line, which was referred to as SU-DHL-4 DCAF16 KO1 strain, […] sequence (SEQ ID NO: 2) was introduced into the SU-DHL-4 cell line, which was referred to as SU-DHL-4 DCAF16 KO2 strain, and […] sequence (SEQ ID NO: 3) was introduced into the SU-DHL-4 cell line, which was referred to as SU-DHL-4 DCAF16 KO 3 strain.
The cultured DCAF16 KO SU-DHL-4 cells were seeded at 2000 cells/well in a transparent 384-well plate (Code No. 781182, Greiner bio-one). After seeding, the cells were pre-cultured at 37° C. in a carbon dioxide gas incubator for 18 to 25 hours. […]

SU-DHL-4 cells = assay: Inhibitory effect on cell viability in SU-DHL-4 cell line (Test Example 1); conditions: SU-DHL-4 cells, 72 hours, Cell Counting Kit-8; concentration showing 90% inhibition of cell viability; read-out: SU-DHL-4 Cell Viability Inhibition Rate IC90
In short: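 SU-DHL-4 cells were grown at 37° C. under 5% CO2 in RPMI1640 with 10 vol % heat-inactivated FBS plus penicillin/streptomycin, seeded and precultured for 18 to 25 hours, then exposed to test compound at 0.1 vol % DMSO for 72 hours. Viability was read with Cell Counting Kit-8 by absorbance at 450 nm.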

| IC50 (DCAF16 KO SU-DHL-4 cells; Homo sapiens, DCAF16 KO SU-DHL-4 cells, 72 hours, Cell Counting Kit-8, 50% inhibition of cell viability) [nM] | IC90 (SU-DHL-4 cells) [nM] | Structure (SMILES) | inhibition at 0.1 µM [1] [%] | Activity Attenuation Ratio (DCAF16 KO SU-DHL-4 cells; (SU-DHL-4 DCAF16 KO IC50)/(SU-DHL-4 WT IC50)) | Suppression Rate of MYC mRNA Expression (%) ([1]; HPRT1) |
| --- | --- | --- | --- | --- | --- |
| 75.8 | – | CCC(=O)N1c2ccccc2[C@H](Nc2ccc(NC(=O)CCCC(=O)Nc3ccc(N[C@@H]4C[C@H](C)N(C(=O)CC)c5ccccc54)cc3)cc2)C[C@@H]1C (relative stereo) [Compound 4a, N^1,N^5-bis(4-{[(2S*,4R*)-2-Methyl-1-propionyl-1,2,3,4-tetrahydroquinolin-4-yl]amino}phenyl)glutaramide] | 98.4 | 361 | – |
| – | – | CCC(=O)N1c2ccccc2[C@H](Nc2ccc(NC(=O)CNC(=O)C(F)=C3CCC(N[C@@H]4C[C@H](C)N(C(=O)CC)c5ccccc54)CC3)cc2)C[C@@H]1C (relative stereo) [Compound 15k, 2-Fluoro-2-(4-(((2S*,4R*)-2-methyl-1-propionyl-1,2,3,4-tetrahydroquinolin-4-yl)amino)cyclohexylidene)-N-(2-((4-(((2S,4R)-2-methyl-1-propionyl-1,2,3,4-tetrahydroquinolin-4-yl)amino)phenyl)amino)-2-oxoethyl)acetamide] | 97.4 | – | – |
| – | 5.47 | CCC(=O)N1c2ccccc2[C@H](Nc2ccc(CCC(=O)NCC3(NC4CCC(N[C@@H]5C[C@H](C)N(C(=O)CC)c6ccccc65)CC4)COC3)cc2)C[C@@H]1C (stereo partly drawn) [Compound 7h] | – | – | 97.5 |
